System: Mitochondria-located protein genes
Assay: DNA chip mRNA expression in yeast, mitochondria-located protein genes (Table 2)
Format: cell-based, Saccharomyces cerevisiae S288C
Conditions: cells incubated two hours with the chemical substance
Method in brief: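 Chemical exposure: 2 h, log-phase S. cerevisiae S288C, YPD, 25° C., dose set to inhibit growth without death. Profiling: mRNA labeled by reverse transcription with Cy3- or Cy5-dUTP, hybridized to whole-genome array. Output: fluorescence ratio against untreated culture.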

In the case of `S=C([S-])NCCNC(=S)[S-].[Zn+2]` [(11), zinc N,N′-ethylenebis(dithiocarbamate)], the “The level of expressed mRNA in the presence of chemical substance/The level of expressed mRNA in the absence of chemical substance” value (yeast gene YJR121W) is reported as 0.9, the “The level of expressed mRNA in the presence of chemical substance/The level of expressed mRNA in the absence of chemical substance” value (yeast gene YKL003C) is reported as 1.7 and the “The level of expressed mRNA in the presence of chemical substance/The level of expressed mRNA in the absence of chemical substance” value (yeast gene YKL016C) is reported as 1.3. For the same molecule, the “The level of expressed mRNA in the presence of chemical substance/The level of expressed mRNA in the absence of chemical substance” value (yeast gene YKL141W) was 1.2, the “The level of expressed mRNA in the presence of chemical substance/The level of expressed mRNA in the absence of chemical substance” value (yeast gene YKL142W) was 2.0 and the “The level of expressed mRNA in the presence of chemical substance/The level of expressed mRNA in the absence of chemical substance” value (yeast gene YKL148C) was 1.5. The “The level of expressed mRNA in the presence of chemical substance/The level of expressed mRNA in the absence of chemical substance” value (yeast gene YKL170W) was 0.7, the “The level of expressed mRNA in the presence of chemical substance/The level of expressed mRNA in the absence of chemical substance” value (yeast gene YKL194C) was 1.6 and the “The level of expressed mRNA in the presence of chemical substance/The level of expressed mRNA in the absence of chemical substance” value (yeast gene YKR066C) was 1.3. The “The level of expressed mRNA in the presence of chemical substance/The level of expressed mRNA in the absence of chemical substance” value (yeast gene YLL041C) was 1.3, the “The level of expressed mRNA in the presence of chemical substance/The level of expressed mRNA in the absence of chemical substance” value (yeast gene YLR038C) was 1.4 and the “The level of expressed mRNA in the presence of chemical substance/The level of expressed mRNA in the absence of chemical substance” value (yeast gene YLR259C) was 3.0. The “The level of expressed mRNA in the presence of chemical substance/The level of expressed mRNA in the absence of chemical substance” value (yeast gene YLR295C) was 1.3, the “The level of expressed mRNA in the presence of chemical substance/The level of expressed mRNA in the absence of chemical substance” value (yeast gene YLR304C) was 1.6 and the “The level of expressed mRNA in the presence of chemical substance/The level of expressed mRNA in the absence of chemical substance” value (yeast gene YLR348C) was 1.3. The “The level of expressed mRNA in the presence of chemical substance/The level of expressed mRNA in the absence of chemical substance” value (yeast gene YLR395C) was 1.5, the “The level of expressed mRNA in the presence of chemical substance/The level of expressed mRNA in the absence of chemical substance” value (yeast gene YML054C) was 1.4 and the “The level of expressed mRNA in the presence of chemical substance/The level of expressed mRNA in the absence of chemical substance” value (yeast gene YML120C) was 1.3. For the same molecule, the “The level of expressed mRNA in the presence of chemical substance/The level of expressed mRNA in the absence of chemical substance” value (yeast gene YML129C) was 1.2, the “The level of expressed mRNA in the presence of chemical substance/The level of expressed mRNA in the absence of chemical substance” value (yeast gene YMR023C) was 0.8 and the “The level of expressed mRNA in the presence of chemical substance/The level of expressed mRNA in the absence of chemical substance” value (yeast gene YMR035W) was 1.5. For the same molecule, the “The level of expressed mRNA in the presence of chemical substance/The level of expressed mRNA in the absence of chemical substance” value (yeast gene YMR083W) was 1.6, the “The level of expressed mRNA in the presence of chemical substance/The level of expressed mRNA in the absence of chemical substance” value (yeast gene YMR089C) was 1.3 and the “The level of expressed mRNA in the presence of chemical substance/The level of expressed mRNA in the absence of chemical substance” value (yeast gene YMR152W) was 1.2. The “The level of expressed mRNA in the presence of chemical substance/The level of expressed mRNA in the absence of chemical substance” value (yeast gene YMR203W) was 2.3, the “The level of expressed mRNA in the presence of chemical substance/The level of expressed mRNA in the absence of chemical substance” value (yeast gene YMR267W) was 1.0 and the “The level of expressed mRNA in the presence of chemical substance/The level of expressed mRNA in the absence of chemical substance” value (yeast gene YNL055C) was 1.9. The “The level of expressed mRNA in the presence of chemical substance/The level of expressed mRNA in the absence of chemical substance” value (yeast gene YNL071W) was 1.6, the “The level of expressed mRNA in the presence of chemical substance/The level of expressed mRNA in the absence of chemical substance” value (yeast gene YNL073W) was 1.1 and the “The level of expressed mRNA in the presence of chemical substance/The level of expressed mRNA in the absence of chemical substance” value (yeast gene YNL104C) was 2.1. For the same molecule, the “The level of expressed mRNA in the presence of chemical substance/The level of expressed mRNA in the absence of chemical substance” value (yeast gene YNL256W) was 0.6, the “The level of expressed mRNA in the presence of chemical substance/The level of expressed mRNA in the absence of chemical substance” value (yeast gene YOL096C) was 1.2 and the “The level of expressed mRNA in the presence of chemical substance/The level of expressed mRNA in the absence of chemical substance” value (yeast gene YOR020C) was 2.5. For the same molecule, the “The level of expressed mRNA in the presence of chemical substance/The level of expressed mRNA in the absence of chemical substance” value (yeast gene YOR037W) was 1.2, the “The level of expressed mRNA in the presence of chemical substance/The level of expressed mRNA in the absence of chemical substance” value (yeast gene YOR100C) was 1.4 and the “The level of expressed mRNA in the presence of chemical substance/The level of expressed mRNA in the absence of chemical substance” value (yeast gene YOR130C) was 0.6. For the same molecule, the “The level of expressed mRNA in the presence of chemical substance/The level of expressed mRNA in the absence of chemical substance” value (yeast gene YOR142W) was 1.5, the “The level of expressed mRNA in the presence of chemical substance/The level of expressed mRNA in the absence of chemical substance” value (yeast gene YOR150W) was 1.0 and the “The level of expressed mRNA in the presence of chemical substance/The level of expressed mRNA in the absence of chemical substance” value (yeast gene YOR176W) was 1.4. For the same molecule, the “The level of expressed mRNA in the presence of chemical substance/The level of expressed mRNA in the absence of chemical substance” value (yeast gene YOR187W) was 1.4, the “The level of expressed mRNA in the presence of chemical substance/The level of expressed mRNA in the absence of chemical substance” value (yeast gene YOR316C) was 2.4 and the “The level of expressed mRNA in the presence of chemical substance/The level of expressed mRNA in the absence of chemical substance” value (yeast gene YPL040C) was 0.9. The “The level of expressed mRNA in the presence of chemical substance/The level of expressed mRNA in the absence of chemical substance” value (yeast gene YPL134C) was 1.7, the “The level of expressed mRNA in the presence of chemical substance/The level of expressed mRNA in the absence of chemical substance” value (yeast gene YPL135W) was 1.3 and the “The level of expressed mRNA in the presence of chemical substance/The level of expressed mRNA in the absence of chemical substance” value (yeast gene YPL215W) was 1.1. For the same molecule, the “The level of expressed mRNA in the presence of chemical substance/The level of expressed mRNA in the absence of chemical substance” value (yeast gene YPL262W) was 1.4, the “The level of expressed mRNA in the presence of chemical substance/The level of expressed mRNA in the absence of chemical substance” value (yeast gene YPR024W) was 0.9 and the “The level of expressed mRNA in the presence of chemical substance/The level of expressed mRNA in the absence of chemical substance” value (yeast gene YPR037C) was 0.9. The “The level of expressed mRNA in the presence of chemical substance/The level of expressed mRNA in the absence of chemical substance” value (yeast gene YPR047W) was 1.1 and the “The level of expressed mRNA in the presence of chemical substance/The level of expressed mRNA in the absence of chemical substance” value (yeast gene YPR134W) was 1.3.

Source: patent US8192962B2, “Processes for detecting toxic substances” (Daikin Industries, Ltd., priority 2001, dated 2012)
